Earlier results in paper PMC3298469, “A selective and potent CXCR3 antagonist SCH 546738 attenuates the development of autoimmune diseases and delays graft rejection” (BMC Immunology, 2012).
Where two headings read alike, the source gives them in different places.

Key:
[1] = Phase II clinical trials, halted; cited from earlier work
mouse = tested on: mouse; design: method as in ref 21 = [21]; Medina J Presented at the 29th National Medicinal Chemistry Symposium (Madison, Wisconsin), June 27-July 1 2004; conditions: mouse model of CIA; cited from earlier work
rat = tested on: rat; design: method as in ref 21 = [21]; Medina J Presented at the 29th National Medicinal Chemistry Symposium (Madison, Wisconsin), June 27-July 1 2004; conditions: rat model of CIA; cited from earlier work
[2] = design: method as in ref 44 = [44]; Medarex Announces Primary Endpoint Achieved in MDX-1100 Anti-IP-10 Antibody Phase 2 Trial for Rheumatoid Arthritis http://www.fiercebiotech.com/press-releases/medarex-announces-primary-endpoint-achiev; conditions: phase 2 clinical trial for RA; cited from earlier work
cardiac allograft = conditions: cited from earlier work
EAE = tested on: EAE; design: method as in PMID 20050195; conditions: by decreasing migration of inflammatory cells into the CNS; cited from earlier work

CCOc1ccc(-n2c([C@@H](C)N(Cc3cccnc3)C(=O)Cc3ccc(OC(F)(F)F)cc3)nc3ncccc3c2=O)cc1 [AMG487]
clinical outcome [1]: lack of efficacy | effect in CIA (mouse): reduced inflammation and cartilage damage | effect in CIA (rat): reduced inflammation and cartilage damage

MDX-1100: anti-IP-10 antibody
clinical outcome [2]: efficacy

Cc1ccc(-c2ccc3c(c2)C=C(C(=O)Nc2ccc(C[N+](C)(C)C4CCOCC4)cc2)CCC3)cc1.[Cl-] [TAK-779]
effect on cardiac allograft vasculopathy (cardiac allograft): attenuates cardiac allograft vasculopathy | effect on EAE (EAE): reduce incidence and severity of EAE
